Results: patent publication US5045566A, “Novel imidate insecticides” (ICI Americas Inc., priority 1989, dated 1991)

What was measured:
Format in all cases: in vivo
[1] = test system: Cabbage Looper [Trichoplusia ni (Hubner)]; experiment: Cabbage looper leaf dip (CL), 3-5 days; details: percent in solution, second-instar larvae
How it was run: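 Compounds in 50-50 acetone-water were applied by dipping squash cotyledons (about 1×1.5 in) for 2-3 s; dried leaves went into petri dishes on moist filter paper with 5 second-instar larvae under high humidity. Mortality was scored after 3-5 days; LC50 from dosage-mortality curves, as percent compound in solution.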

[2] = test system: Maize weevil [Sitophilus zeamais (Motschulsky)]; experiment: Maize weevil on dipped corn seeds (MW), 48 hours; details: percent in solution, adult weevils
How it was run: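 LC50, given as percent of compound in dipping solution, comes from dosage-mortality curves over concentrations descending from 0.01%. Four corn seeds soaked 2-3 s in 50:50 acetone:water solution were dried and held with 10 adult weevils, about 25° C, mortality read after 48 h.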

[3] = test system: Tobacco Budworm [Heliothis virescens (Fabricius)] eggs; experiment: Tobacco budworm eggs (TBW-E); details: percent in solution; 2-day old eggs
How it was run: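 Paper towel patches bearing 2-day old eggs were dipped in acetone solutions of compound, then set in petri dishes over larval rearing medium at 78° F. Mortality was scored once all control eggs had hatched and larvae were feeding. LC50, from dosage-mortality curves, is given as percent compound in solution.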

[4] = test system: Housefly [Musca domestica]; experiment: Housefly contact mortality in dishes (HF), 48 hours; details: μg of test compound per 25 female flies
How it was run: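 LC50, as μg compound per 25 female flies, comes from dosage-mortality curves with doses from 100 μg downward. Residues were made by evaporating acetone plus 0.01% peanut oil in dishes, onto which 1-2-day-old females were caged; deaths were counted after 48 hours.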

[5] = test system: Black Bean Aphid [Aphis fabae (Scop.)]; experiment: Black bean aphid spray test on nasturtium (BBA), 48 hours; details: percent of test compound in sprayed solution
How it was run: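 LC50, given as percent test compound in the sprayed liquid, was calculated from dosage-mortality curves using concentrations from 0.05% downward. Sprays in 50:50 acetone-water went to runoff on ~5 cm nasturtiums carrying 25-50 aphids of mixed ages, one day after infestation. Deaths were counted 48 h later under greenhouse conditions.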

[6] = test system: Tobacco Budworm [Heliothis virescens (Fabricius)] larvae; experiment: Tobacco budworm larvae, contact (TBW-C), 5 days; details: percent in solution, second-instar larvae
Method: The compounds in Tables 1 and 2 above were tested for insecticidal activity using the following testing procedures. LC50 values, based on the results of these tests and calculated according to dosage-mortality curves, are expressed in Table 3.
Tobacco Budworm [Heliothis virescens (Fabricius)]:
(a) Contact: Test compounds were diluted in a 50-50 acetone-water solution. Cotton (Gossypium sp.) cotyledons were immersed in the test solutions for 2-3 seconds and placed on a wire screen to dry. The dried leaves were placed in petri dishes containing a moistened piece of filter paper and infested with 5 second-instar tobacco budworm larvae. The dishes were placed in a high humidity chamber for 5 days, and percent mortality of the larvae recorded. Test concentrations ranged from 0.1% downward. The LC-50 values are expressed below in Table 3 under the heading "TBW-C" in terms of percent of the test compound in the solution.

[7] = test system: Aster Leafhopper [Macrosteles fascifrens (Stal)]; experiment: Aster leafhopper on dipped oat seedlings (LH), 48 hours; details: percent in solution, adults/nymphs
How it was run: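 LC50 values, given as percent of test compound in the dip solution, were derived from dosage-mortality curves over concentrations from 0.05% downward. Mortality was counted 48 hours after ten leafhopper adults/nymphs were enclosed on treated seedlings. The seedlings were oats, about 10 cm tall, briefly dipped in 50-50 acetone-water.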

| SMILES | LC50 CL [1] | LC50 MW [2] | LC50 TBW E (eggs) [3] | LC50 HF [4] | LC50 BBA [5] | LC50 TBW C (contact) [6] | LC50 LH [7] |
| --- | --- | --- | --- | --- | --- | --- | --- |
| CC(C)C(=Nc1ccc(F)c(Cl)c1F)OCc1cccc(Oc2ccc(F)cc2)n1 [Compound 521] | 0.00005% | 0.01% | > 0.1% | 7.5 µg | 0.0008% | 0.0005% | 0.05% |
| CC(C)(C)c1ccc(N=C(OCc2cccc(Oc3ccccc3)c2)C(Cl)Cl)cc1 [Compound 140] | < 0.1% |  | > 0.1% | > 100 µg | 0.05% | > 0.1% |  |
| Cc1ccc(N=C(OCc2cccc(Oc3ccccc3)c2)C(C)C)cc1F [Compound 75] | 0.0025% |  | 0.01% | 5 µg | 0.0006% | 0.0075% | 0.0008% |
| Cc1c(F)cccc1N=C(OCc1cccc(Oc2ccccc2)c1)C(C)C [Compound 73] | 0.004% |  | 0.025% | 25 µg | 0.003% | 0.005% |  |
| Cc1cc(Cl)ccc1N=C(OCc1cccc(Oc2ccccc2)c1)C(C)C [Compound 96] | 0.003% |  | 0.025% | 35 µg | 0.002% | 0.0025% |  |
| CCC(C)C(=Nc1ccc(F)c(Cl)c1)OCc1cccc(Oc2ccc(F)cc2)c1 (stereo not shown) [Compound 210] | 0.00028% | > 0.01% | 0.045% | 35 µg | 0.01% | 0.0015% |  |
| C#CCc1c(F)c(F)c(COC(=Nc2ccc(F)c(Cl)c2)C(C)C)c(F)c1F [Compound 520] | > 0.1% | 0.0042% | > 0.1% | 5.5 µg | 0.0002% | 0.00075% | 0.0003% |
| CC(C)(C)C(=Nc1ccc(F)c(Cl)c1)OCc1cccc(Oc2ccc(F)cc2)c1 [Compound 204] | 0.0023% | > 0.01% | > 0.1% | > 100 µg |  | 0.004% |  |
| CC(C)C(=Nc1ccc(F)c(Cl)c1)OCc1cccc(Oc2ccccc2)n1 [Compound 462] | 0.001% | > 0.05% | 0.04% | 7 µg | 0.001% | 0.0025% | 0.001% |
| CC(C)C(=Nc1cccc(Cl)c1)OCc1cccc(Oc2ccc(F)cc2)c1 [Compound 194] | 0.0005% | > 0.01% | 0.04% | 10 µg | 0.001% | 0.0017% | 0.0005% |
| COc1ccc(N=C(OCc2cccc(Oc3ccccc3)c2)C(C)C)c(OC)c1 [Compound 146] | 0.017% |  | > 0.1% | 40 µg | 0.05% | 0.025% |  |
| CC(C)C(=Nc1ccc(F)c(Br)c1)OCc1cccc(Oc2ccc(F)cc2)c1 [Compound 253] | 0.00013% | > 0.01% | > 0.1% | 10 µg | 0.002% | 0.0005% | 0.003% |
| CC(C)C(=Nc1ccc(F)c(F)c1)OCc1cccc(Oc2ccc(F)cc2)c1 [Compound 60, N-(3,4-Difluorophenyl)-O-(4'-fluoro-3-phenoxybenzyl)isobutyrylimidate] | 0.001% | 0.0075% | 0.017% | 8 µg |  | 0.0009% | 0.002% |
| CC(=O)c1ccc(N=C(OCc2cccc(Oc3ccccc3)c2)C(C)C)cc1 [Compound 147] | 0.01% |  | > 0.1% | 10 µg | 0.03% | 0.0075% |  |
| ClC(Cl)C(=Nc1ccccc1)OCc1cccc(Oc2ccccc2)c1 [Compound 41] | 0.015% |  | 0.04% | 4.5 µg | 0.001% | 0.0035% |  |
| CC(C)C(=Nc1cccc(C(F)(F)F)c1)OCc1ccc(F)c(Oc2ccc(Cl)cc2)c1 [Compound 266] | 0.00016% |  | 0.06% | 10 µg | > 0.05% | 0.0007% |  |
| COc1ccccc1N=C(OCc1cccc(Oc2ccccc2)c1)C(C)C [Compound 145] | 0.05% |  | > 0.1% | > 100 µg | > 0.05% | 0.05% | > 0.05% |
| CC(C)C(=Nc1ccc2c(c1)OC(C)(C)O2)OCc1cccc(Oc2ccc(F)cc2)c1 [Compound 219] | 0.00025% | > 0.01% | 0.027% | 50 µg | 0.003% | 0.004% |  |
| CC(C)C(=Nc1ccc(F)c(Cl)c1)OCc1cccc(Oc2ccc(C#N)cc2)c1 [Compound 196] | 0.0006% | > 0.01% | > 0.1% | 17 µg |  | 0.001% | > 0.05% |
| Fc1ccc(N=C(OCc2cccc(Oc3ccccc3)c2)C(Cl)Cl)cc1 [Compound 44] |  |  | 0.06% | 3 µg | 0.0006% | < 0.1% |  |
| CCOc1ccc(N=C(OCc2cccc(Oc3ccccc3)c2)C(Cl)Cl)cc1 [Compound 138] | 0.005% | > 0.01% | 0.08% | 19 µg | 0.003% | 0.015% |  |
| C=C(C)C(=Nc1ccc(C(F)(F)F)cc1)OCc1ccc(F)c(Oc2ccc(Cl)cc2)c1 [Compound 432] | 0.0012% | > 0.01% | 0.032% | < 100 µg | 0.001% | < 0.1% |  |
| CC(C)C(=Nc1c(F)c(F)c(F)c(F)c1F)OCc1cccc(Oc2ccccc2)c1 [Compound 51] | 0.001% |  | 0.067% | 25 µg | 0.01% | 0.0025% | 0.001% |
| Cc1ccc(F)cc1N=C(OCc1cccc(Oc2ccccc2)c1)C(C)C [Compound 74] | 0.005% |  | 0.025% | 25 µg | 0.001% | 0.0025% |  |
| CC(C)C(=Nc1cc(F)cc(F)c1)OCc1cccc(Oc2ccc(F)cc2)c1 [Compound 199] | 0.0006% | > 0.01% | > 0.1% | 8 µg |  | 0.003% |  |
| CC(C)C(=Nc1ccc(Cl)c(Cl)c1)OCc1cccc(Oc2ccc(F)cc2)c1 [Compound 37] | 0.0004% | 0.009% | 0.014% | 21 µg |  | 0.0005% | 0.002% |
| CC(C)C(=Nc1ccc(F)c(C(F)(F)F)c1)OCc1ccc(F)c(Oc2ccc(Cl)cc2)c1 [Compound 297] | 0.00027% | 0.0071% | 0.025% | 23 µg |  | 0.00075% | 0.0001% |
| COc1ccc(N=C(OCc2cccc(Oc3ccccc3)c2)C(C)C)cc1Cl [Compound 95] | 0.0025% |  | 0.025% | 10 µg | 0.001% | 0.004% |  |
